{"source": "patent US20080108698A1", "about": "“Nutrient Supplement and Use of the Same” (OY ELMOMED LTD, priority 2004, published 2008)", "key": {"[1]": {"settings": "commercially available colorless crystals; cited from earlier work"}, "[2]": {"assay": "Example 1: subjects' reports of muscle pain, stiffness, aches, power performance and adverse effects", "assay_type": "in vivo, human", "excerpt": "In order to assess the effects of HICA (α-hydroxy-isocaproic acid) on exercise induced muscle pain and body composition, 0.496 g of HICA (produced in VTT Technical Research Centre of Finland, Helsinki) was given thrice daily after intensive training sessions to 7 healthy volunteers for 42 days in an open study. The volunteers were national top wrestlers, weighing 79.7+/−4.5 kg (mean+/−SD) and aging 26+/−6 years (mean+/−SD). They had at least 10 training sessions a week, each lasting from 1.5 to 2.5 hours.\nThe subjects took HICA orally as liquid (62.5 g HICA dissolved in 630 ml water and buffered by NaOH to pH 3.8). The single dose taken three times a day after each training session was 5 ml (containing […] of HICA) of the solution mixed with apple juice. On those days they had less than three training session they took extra doses of HICA so that 3 doses were taken each day. The total daily dose was 1488 mg of HICA.\nSubjects were asked to report all feelings they would associate with the treatment with HICA, e.g. pain, stiffness or aches in muscles felt during and after the training sessions."}, "[3]": {"assay": "Example 2: subjective muscle aches and laboratory tests", "assay_type": "in vivo, human", "settings": "one basket ball player", "protocol": "(§1) A basket ball player (weight 83.7 kg; BMI 26.8 kg/m^2) took after intensive daily training sessions 0.496 g of HICA three times a day for 42 days in an identical design as described in Example 1. The composition of their soft tissue was analyzed in detail. DEXA-results were analyzed by a software discriminating successfully between bone, fat and lean body mass."}, "[4]": {"assay": "Example 1: blood pressure, heart rate and clinical chemistry before and after HICA", "assay_type": "in vivo, human", "settings": "n = 7, after 42 days", "excerpt": "(§2) In order to assess the effects of HICA (α-hydroxy-isocaproic acid) on exercise induced muscle pain and body composition, 0.496 g of HICA (produced in VTT Technical Research Centre of Finland, Helsinki) was given thrice daily after intensive training sessions to 7 healthy volunteers for 42 days in an open study. The volunteers were national top wrestlers, weighing 79.7+/−4.5 kg (mean+/−SD) and aging 26+/−6 years (mean+/−SD). They had at least 10 training sessions a week, each lasting from 1.5 to 2.5 hours. Before the study the subjects underwent a medical examination. Twenty ml of blood was taken for chemical assays and the body weight and body composition were assessed by dual-energy X-ray absorptiometry (DEXA; LUNAR GE Medical Systems) just before starting the 42-day HICA intake. The subjects took HICA orally as liquid (62.5 g HICA dissolved in 630 ml water and buffered by NaOH to pH 3.8). The single dose taken three times a day after each training session was 5 ml (containing […] of HICA) of the solution mixed with apple juice. On those days they had less than three training session they took extra doses of HICA so that 3 doses were taken each day. The total daily dose was 1488 mg of HICA."}, "[5]": {"assay": "Example 2: basket ball player case study, body composition by DEXA", "assay_type": "in vivo, human", "protocol": "as §1"}, "mice": {"system": "mice", "settings": "iv. in mice, Na-salt; cited from earlier work"}, "[6]": {"assay": "Example 1: open 42-day study in top wrestlers, body weight and body composition by DEXA", "assay_type": "in vivo, human", "excerpt": "as §2, with “hours. During 6 weeks preceding the HICA period there were no essential changes in the body weight of the wrestlers. At least for 6 weeks before and during the trial daily diets and the number, intensity, and length of daily training sessions were kept constant.” for “hours.”"}, "[7]": {"assay": "Example 1: open 42-day study in top wrestlers, body weight and body composition by DEXA", "assay_type": "in vivo, human", "settings": "individual subjects 1-7; after 42 days, 0.496 g thrice daily orally"}, "[8]": {"settings": "Barlas et al.; 11-day study period, 60 study subjects; cited from earlier work"}, "[9]": {"settings": "Trappe et al. 2002; cited from earlier work"}, "[10]": {"settings": "after vs before 42-day treatment"}, "[11]": {"settings": "one basketball player, after 42-day treatment"}, "[12]": {"settings": "individual subjects 1-7, after 42 days"}, "[13]": {"settings": "individual subjects 1-7, after 42 days, DEXA"}, "[14]": {"settings": "mean of 7 subjects, after 42 days, P < 0.05 vs before"}}, "note": "Values joined by “and” are separate entries in the source; they are usually repeats but may differ in a detail not shown here. Equal entries are not always repeated.", "data": [{"smiles": "CC(C)CC(O)C(=O)O", "note": "(racemic) [HICA, DL-α-hydroxy-isocaproic acid]", "values": [{"measurement": "solubility", "setting": "[1]", "result": "soluble in water and alcohols"}, {"measurement": "adverse effects", "setting": "[2]; 42-day treatment, 7 top athletes", "result": "without any adverse effects"}, {"measurement": "pain, stiffness and aches in muscles felt during and after the training sessions (subjects' reports)", "setting": "[2]; all 7 subjects, 42-day treatment", "result": "abolishment of pain, stiffness and aches in muscles"}, {"measurement": "subjects reporting enhanced power performance", "setting": "[2]; subjective, after the treatment with HICA", "result": "6 out of 7"}, {"measurement": "exercise related muscle aches and pains (subjective report)", "setting": "[3]; 42 days", "result": "disappearance of all exercise related muscle aches and pains"}, {"measurement": "laboratory tests, e.g. blood pressure, heart rate or blood analyses", "setting": "[3]; data not shown", "result": "no changes"}, {"measurement": "B-Erythrocytes, After HICA, mean", "setting": "[4]; NS", "result": "4.9 E12/l"}, {"measurement": "B-Hematocrite, After HICA, mean", "setting": "[4]; NS", "result": 42.6, "unit": "%"}, {"measurement": "B-Hemoglobin, After HICA, mean", "setting": "[4]; NS", "result": 149.1, "unit": "g/L"}, {"measurement": "B-Leucocytes, After HICA, mean", "setting": "[4]; NS", "result": "5.7 E9/l"}, {"measurement": "E-MCH, After HICA, mean", "setting": "[4]; NS", "result": 30.4, "unit": "pg"}, {"measurement": "E-MCHC, After HICA, mean", "setting": "[4]; NS", "result": 347.9, "unit": "g/L"}, {"measurement": "E-MCV, After HICA, mean", "setting": "[4]; NS", "result": 87.4, "unit": "fL"}, {"measurement": "S-Alanine amino transferase, After HICA, mean", "setting": "[4]; NS", "result": 31.6, "unit": "U/l"}, {"measurement": "fS-Creatinine, After HICA, mean", "setting": "[4]; NS", "result": 89.2, "unit": "µM"}, {"measurement": "heart rate, After HICA, mean", "setting": "[4]; NS", "result": 62.0, "unit": "min⁻¹"}, {"measurement": "diastolic blood pressure, After HICA, mean", "setting": "[4]; P < 0.01 vs before", "result": 75.7, "unit": "mmHg"}, {"measurement": "systolic blood pressure, After HICA, mean", "setting": "[4]; P < 0.05 vs before", "result": 139.7, "unit": "mmHg"}, {"measurement": "gain of lean body mass during the treatment", "setting": "[5]; DEXA, one basket ball player, 42 days", "result": 2.65, "unit": "kg"}, {"measurement": "bone, Change", "setting": "[5]; [10]", "result": "+0.0 g"}, {"measurement": "fat, Change", "setting": "[5]; [10]", "result": 0.3, "unit": "kg"}, {"measurement": "lean, extremities, Change", "setting": "[5]; [10]", "result": 1.6, "unit": "kg"}, {"measurement": "lean, other, Change", "setting": "[5]; [10]", "result": "+0.0 g"}, {"measurement": "lean, total, Change", "setting": "[5]; [10]", "result": "+2.7 g"}, {"measurement": "lean, trunk, Change", "setting": "[5]; [10]", "result": 1, "unit": "kg"}, {"measurement": "weight, Change", "setting": "[5]; [10]", "result": 3, "unit": "kg"}, {"measurement": "bone, After HICA", "setting": "[5]; [11]", "result": 4.1, "unit": "kg"}, {"measurement": "fat, After HICA", "setting": "[5]; [11]", "result": 8.1, "unit": "kg"}, {"measurement": "lean, extremities, After HICA", "setting": "[5]; [11]", "result": 34.8, "unit": "kg"}, {"measurement": "lean, other, After HICA", "setting": "[5]; [11]", "result": 4.3, "unit": "kg"}, {"measurement": "lean, total, After HICA", "setting": "[5]; [11]", "result": 74.4, "unit": "kg"}, {"measurement": "lean, trunk, After HICA", "setting": "[5]; [11]", "result": 35.45, "unit": "kg"}, {"measurement": "weight, After HICA", "setting": "[5]; [11]", "result": 86.6, "unit": "kg"}, {"measurement": "LD50", "setting": "mice", "result": 650, "unit": "mg/kg"}, {"measurement": "change of bone weight (DEXA)", "setting": "[6]; 42-day treatment, 7 subjects", "result": "not changed"}, {"measurement": "change of total soft tissue mass (total weight - bone weight)", "setting": "[6]; 42-day treatment, P<0.05, paired t-test", "result": "increased significantly"}, {"measurement": "change of soft tissue masses of all extremities and trunk", "setting": "[6]; 42-day treatment, P<0.05 and P<0.001, respectively", "result": "increased significantly"}, {"measurement": "Total weight of soft tissue in extremities, After HICA", "setting": "[6]; [12]", "result": "33.2 kilograms and 35.7 kilograms (2×) and 34.7 kilograms and 38.5 kilograms and 35.2 kilograms and 39.0 kilograms"}, {"measurement": "Total weight of soft tissue in trunk, After HICA", "setting": "[6]; [12]", "result": "38.0 kilograms and 38.3 kilograms and 39.7 kilograms and 40.4 kilograms and 43.1 kilograms and 39.8 kilograms and 44.8 kilograms"}, {"measurement": "Bone weight, After HICA", "setting": "[6]; [13]", "result": "4.1 kilograms (2×) and 4.4 kilograms and 4.0 kilograms (2×) and 3.6 kilograms and 3.9 kilograms"}, {"measurement": "Soft tissue weight, After HICA", "setting": "[6]; [13]", "result": "75.0 kilograms and 83.7 kilograms and 71.2 kilograms and 74.0 kilograms and 75.4 kilograms and 75.1 kilograms and 81.6 kilograms"}, {"measurement": "Total weight of soft tissue in trunk, After HICA, mean", "setting": "[6]; mean of 7 subjects, after 42 days, P < 0.001 vs before", "result": 40.6, "unit": "kilograms"}, {"measurement": "Soft tissue weight, After HICA, mean", "setting": "[6]; [14]", "result": 76.6, "unit": "kilograms"}, {"measurement": "Total weight of soft tissue in extremities, After HICA, mean", "setting": "[6]; [14]", "result": 36.0, "unit": "kilograms"}, {"measurement": "Whole body weight, After HICA, mean", "setting": "[6]; [14]", "result": 80.57, "unit": "kilograms"}, {"measurement": "Bone weight, After HICA, mean", "setting": "[6]; mean of 7 subjects, after 42 days, nonsignificant vs before", "result": 4.0, "unit": "kilograms"}, {"measurement": "mean weight gain during the treatment period", "setting": "[6]; mean+/-SD, 7 subjects, 42-day treatment, P<0.05 paired t-test", "result": "0.8 kg and 0.84 ± 1.0 kg"}, {"measurement": "Whole body weight, After HICA", "setting": "[7]", "result": "79.1 kilograms and 88.1 kilograms and 75.2 kilograms and 77.6 kilograms and 79.3 kilograms and 79 kilograms and 85.7 kilograms"}]}, {"smiles": "CC(=O)Oc1ccccc1C(=O)O", "note": "[aspirin]", "values": [{"measurement": "effect on delayed-onset muscle soreness induced by eccentric exercise", "setting": "[8]", "result": "neither aspirin, paracetamol nor codeine had a beneficial effect"}]}, {"smiles": "COc1ccc2c3c1O[C@H]1[C@@H](O)C=C[C@H]4[C@@H](C2)N(C)CC[C@@]341", "note": "[codeine]", "values": [{"measurement": "effect on delayed-onset muscle soreness induced by eccentric exercise", "setting": "[8]", "result": "neither aspirin, paracetamol nor codeine had a beneficial effect"}]}, {"smiles": "CC(C)Cc1ccc(C(C)C(=O)O)cc1", "note": "(centres unmarked) [ibuprofen]", "values": [{"measurement": "effect on eccentric resistant training induced muscle soreness", "setting": "[9]", "result": "Neither ibuprofen nor paracetamol reduced eccentric resistant training induced muscle soreness"}]}, {"smiles": "CC(=O)Nc1ccc(O)cc1", "note": "[paracetamol]", "values": [{"measurement": "effect on eccentric resistant training induced muscle soreness", "setting": "[9]", "result": "Neither ibuprofen nor paracetamol reduced eccentric resistant training induced muscle soreness"}, {"measurement": "effect on delayed-onset muscle soreness induced by eccentric exercise", "setting": "[8]", "result": "neither aspirin, paracetamol nor codeine had a beneficial effect"}]}]}
